From patent US20230220047A1, “PEPTIDES FOR TREATMENT OF SEPSIS AND CANCER” (NORWEGIAN UNIVERSITY OF SCIENCE AND TECHNOLOGY (NTNU), priority 2020, published 2023)
“Also recorded” adds a separate entry of the source.

Legend:
[1] = test system: JJN-3 multiple myeloma cells; assay type: cell-based, human; conditions: JJN-3, 4 μM peptide
Text: Minor effects on the proliferation of the IH-1 and RPMI 8226 cell lines are seen. […] The number of viable cells was detected based on quantitation of ATP by luminescent signal in correlation to a standard curve prepared for each cell line. Results are based on 3-5 biological replicates for each condition, error bars show standard deviation of mean.
(§1) Multiple myeloma cells JJN-3 (DSMZ (Germany) no. ACC 541), ANBL-6 (Cellosaurus accession number CVCL_5425, obtained from Dr Diane Jelinek, Mayo Clinic, Rochester, Minn.), INA-6 (Cellosaurus accession number CVCL_5209, obtained from Dr M. Gramatzki, University of Erlangen-Nurnberg, Erlangen, Germany), RPMI-8226 (ATCC CCL-155), and IH-1 (Cellosaurus accession number CVCL_WZ44, established from the pleural effusion of a myeloma patient by Myeloma research group, IKOM, NTNU, Trondheim, Norway) were grown in RPMI-1640 (Sigma-Aldrich Norway, Oslo, Norway) supplemented with 100 nM penicillin/streptomycin and 10% FCS, and for ANBL-6, IH-1 and INA-6 cells 2 ng/ml recombinant IL-6 (Gibco, Thermo Fisher Scientific, Waltham, Mass., USA). Murine multiple myeloma Vk*MYC cells were obtained from M.D. Leif Bergsagel (Mayo Clinic, Richester, Minn., USA) and cultured in RPMI-1640 supplemented with 2% human serum (B^+, The blood bank, St Olav's Hospital, Trondheim, Norway), 100 nM penicillin/streptomycin, L-Glutamine (2 mM) and recombinant IL-6 (1 ng/ml). HEK293T (ATCC CRL-3216) were cultured in DMEM with 10% FCS. THP-1 TRAM knockout (KO) and TLR4 KO cell lines, and matching lentivirally transduced control cell lines, were differentiated in the same way as wild type (WT) THP-1. TRAM KO THP-1 cell line is described in Yurchenko et al. (supra).
To evaluate the potential impact of the P7 peptide on proliferation of tumour cells of lymphoid origin, we performed a CellTiter-Glo Luminescent Cell Viability Assay to address proliferation of several multiple myeloma (MM) cell lines. […]

Jurkat cells = experiment: Proliferation of Jurkat T cell leukaemia cells; assay type: cell-based, human; conditions: 15 μM or 20 μM, 48 h
Description: Jurkat cells were seeded at 5000 cells/well (as indicated by dotted line) and incubated in medium supplemented with water, penetratin, P7-Pen or P7-N4-Pen. Peptides were included at 15 μM (A) or 20 μM (B). Cells were incubated for 48 hours then counted. […] Results are based on 3 biological replicates, error bars show standard deviation of mean.
(§2) SW480 (ATCC CCL-228) and Jurkat (ATCC Clone E6-1; TIB-152) cells were cultured in RPMI 1640 (Sigma-Aldrich, Schnelldorf, Germany) supplemented with 10% heat-inactivated FCS, penicillin/streptomycin (Life Technologies) and 20 mM L-Glutamine. THP-1 cells (ATCC TIB-202) were cultured in RPMI-1640 (high-glucose, ATCC) supplemented with 10% heat inactivated foetal calf serum (FCS), 100 nM penicillin/streptomycin and 5 μM β-mercaptoethanol (Sigma). THP-1 cells were differentiated with 60 ng/ml phorbol 12-myristate 13-acetate (PMA, Sigma) for 72 h, followed by 24 or 48 h in medium without PMA.
(§3) The peptides were tested against the SW480 cell line in the presence and absence of LPS.

THP-1 cells = experiment: Viability of acute myeloid leukaemia cell line THP-1; assay type: cell-based, human; conditions: 5-30 μM, 48 h
Description: THP-1 cells were seeded in medium at 10,000 cells/well, as indicated by the dotted line. Cells were incubated for 48 hours in medium supplemented with water, C3A-Pen, P7-Pen, P7-A4-Pen or P7-N4-Pen. The peptides were included at concentrations ranging from 5-30 μM. At 48 hours cells were counted. […] The results with other peptides were less clear-cut. Results are based on 3 biological replicates, error bars show standard deviation of mean.
as §3

SW480 cells = experiment: Proliferation of SW480 colon cancer cells; assay type: cell-based, human; conditions: 15 μM, 48 h, with or without LPS 100 ng/ml
Description: SW480 cells were seeded and incubated in medium alone or supplemented with water, 15 μM penetratin, 15 μM P7-Pen or 15 μM P7-N4-Pen. Under each condition cells were incubated both without LPS and with 100 ng/ml LPS. Cells were incubated for 48 hours then counted. […] The presence of LPS made no difference to the effect of the peptides on proliferation. Results are based on 3 biological replicates, error bars show standard deviation of mean.
as §2, §3

[2] = test system: ANBL-6 multiple myeloma cells; experiment: CellTiter-Glo cell viability assay, ANBL-6; assay type: cell-based
Description: Minor effects on the proliferation of the IH-1 and RPMI 8226 cell lines are seen. Cells were seeded at the level shown (left-hand bar of each set) then incubated in medium containing water, 10 μM penetratin or 10 μM P7-A4-Pen for 48 hr (except for INA-6 cells, which were incubated with 12.5 μM penetratin or 12.5 μM P7-A4-Pen). The number of viable cells was detected based on quantitation of ATP by luminescent signal in correlation to a standard curve prepared for each cell line. Results are based on 3-5 biological replicates for each condition, error bars show standard deviation of mean.
Cells were seeded and then incubated in growth medium alone or supplemented with water, DMSO, 15 μM penetratin or 15 μM investigational peptide. The growth medium only and H2O—, DMSO- and penetratin-supplemented cultures constituted controls.
The solid horizontal lines show the amount of cells originally seeded. In (A) ANBL-6 cells were seeded at a level of 10,000 cells/well, then incubated in medium supplemented with water, the control peptide C3A-Pen, P7-Pen, P7-A4-Pen, P7-N4-Pen or P7-K2-Pen for 48 hours. The peptides were included at concentrations of 5, 10, 12.5, 15, 20 or 30 μM. Cells were counted at 48 hours. In (B), ANBL-6 cells were seeded at a level of 5000 cells/well, then incubated in medium supplemented with water, P6-Pen, P-P6-Pen, P7-D4-Pen or P7-A4-Pen for 48 hours. Peptides were included at concentrations of 5, 10 or 20 μM. Cells were counted at 48 hours. […] Results are based on 3 biological replicates, error bars show standard deviation of mean.
as §1
To evaluate the potential impact of the P7 peptide on proliferation of tumour cells of lymphoid origin, we performed a CellTiter-Glo Luminescent Cell Viability Assay to address proliferation of several multiple myeloma (MM) cell lines. For the assay, cells were incubated for 48 h in respective media containing either solvent (water), 10 μM control peptide (Pen) or the SLAMF1-derived peptide P7-A4-Pen for 48 h (FIG. 32) (with the exception of the INA-6 cells which were incubated with 12.5 μM control peptide or P7-A4-Pen). […] This effect could be mediated by P7-A4-Pen-induced inhibition of signalling pathways that are crucial for driving proliferation and/or survival of MM tumour cells.

[3] = test system: primary Vk*MYC multiple myeloma cells; experiment: Primary Vk*MYC multiple myeloma cells; assay type: cell-based, mouse; conditions: 7.5 or 15 μM, 48 h
Description: Isolated primary cells were seeded then incubated for 48 hours in growth medium supplemented with water, penetratin, P7-Pen, P7-A4-Pen or P7-N4-Pen, then counted. Peptides were included at concentrations of 7.5 or 15 μM. […] Results are based on 3 biological replicates, error bars show standard deviation of mean.
as §1
Primary multiple myeloma cells were isolated from Vk*Myc mice and provided by the Multiple Myeloma Research Group, IKOM, NTNU. The peptides P7-Pen, P7-N4-Pen and P7-A4-Pen were applied to the cultured primary cells and effect of the peptides on cell growth analysed as previously.

SLAMF1-TRAM interaction = target: T1, SLAMF1-TRAM interaction (Homo sapiens, UniProt Q86XR7); experiment: Co-precipitation of SLAMF1 and TRAM^Flag in the presence of ECFP-tagged peptides; assay type: binding; conditions: N-terminal ECFP-tagged peptides, HEK-293T lysates, anti-Flag IP
T1 construct: expressed in transfected cells; host or cells: HEK-293T
T1 sequence (Q86XR7 whole entry): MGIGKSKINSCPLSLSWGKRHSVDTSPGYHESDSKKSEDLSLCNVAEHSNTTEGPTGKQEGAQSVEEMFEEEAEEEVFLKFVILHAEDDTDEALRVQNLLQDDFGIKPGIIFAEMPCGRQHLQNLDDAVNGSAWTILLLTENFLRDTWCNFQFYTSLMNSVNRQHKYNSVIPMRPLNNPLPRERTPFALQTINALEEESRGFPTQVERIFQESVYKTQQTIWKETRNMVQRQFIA
Text: (A) Western blot analysis of SLAMF1 and TRAM^Flag co-precipitated in the presence of CFP-tagged peptides. TRAM^Flag was precipitated from cell lysates on agarose beads and distributed across 15 tubes. […] Unbound proteins/peptides were removed by a washing step, and pecipitates analysed by WB (anti-Flag IPs). Reduced SLAMF1 binding to TRAM indicates inhibition of the TRAM/SLAMF1 interaction by the peptide. (B) Sequences of the peptides that were expressed as ECFP-tagged proteins (N-terminal ECFP). Peptides 4 and 5 are not shown and were not pursued.
HEK293T cells expressing Flag-tagged proteins were lysed using 1×lysis buffer (150 mM NaCl, 50 mM TrisHCl (pH 8.0), 1 mM EDTA, 1% NP40), supplemented with EDTA-free Complete Mini protease Inhibitor Cocktail Tablets and PhosSTOP phosphatase inhibitor cocktail from Roche, 50 mM NaF and 2 mM […] (Sigma). IPs were carried out by rotation of cell lysates at 4° C. for 2 h with anti-flag (M2) agarose (Sigma). Beads were washed 5 times with lysis buffer and heated for 5 min with 1×NuPAGE® LDS Sample Buffer (Thermo Fisher Scientific) before analysis of precipitates by Western blotting. […]
Inhibition of the TRAM-SLAMF1 interaction using SLAMF1-derived peptides was tested. For the first line of experiments, SLAMF1-derived peptides were co-expressed as N-terminal ECFP-tagged proteins together with SLAMF1 and TRAM^FLAG constructs in HEK-293T cells.

Substance | combination effect with melphalan at low melphalan concentrations [1] | effect on proliferation of Jurkat cells (Jurkat cells) | effect on THP-1 cell number (THP-1 cells) | effect on proliferation of SW480 cells (SW480 cells) | effect on proliferation of ANBL-6 cells ([2]; 15 μM) | anti-proliferative activity over a concentration series ([2]; 5, 10, 12.5, 15, 20 and 30 μM or 5, 10 and 20 μM, 48 h) | effect on primary multiple myeloma cells [3] | anti-proliferative activity at the highest tested concentration ([2]; 20 μM, 48 h) | inhibitory effect on SLAMF1-TRAM co-precipitation (SLAMF1-TRAM interaction)
Ac-ITVNASVTLTGRQIKIWFQNRRMKWKK-NH2 [Peptide P7-N4-Pen] | synergistic effect | modest but clear anti-proliferative effect | clear dose-dependent cytotoxic effect; also recorded: anti-proliferative effect | a degree of anti-proliferative effect | anti-proliferative effect | clear concentration-dependent effect | strong cytotoxic effect | – | –
P6: SEQ ID NO: 2; amino acid sequence of SLAMF1 positions 324-333 (ITVYASVTLP; listed as Homo sapiens) [Peptide P6] | – | – | – | – | – | – | – | moderate anti-proliferative | highest efficacy
